# Publication PMC5318439, “The Novel Toll-Like Receptor 2 Agonist SUP3 Enhances Antigen Presentation and T Cell Activation by Dendritic Cells” (Frontiers in Immunology, 2017)
# Where a SMILES comes first, the peptide text is derived from it. The star is where a group is joined. X1 = CCCCCCCCCCCCCCNC(=O)OC[C@H](C*)OC(=O)NCCCCCCCCCCCCCC; Palmitoyl = CCCCCCCCCCCCCCCC(=O)*
# System: CD11b^+ cDCs
# Experiment: Cytokine production by purified CD11b+ cDCs (ELISA)
# Assay type: cell-based, mice
# Details: 200 nM, GM-CSF 20 ng/mL, 24 h, compared with CpG 20 nM
# Experimental: Splenic DCs (5 × 10^5 cells/mL) were stimulated by Pam3 (200 nM), SUP3 (200 nM), or CpG ODN 1668 (20 nM; Adipogen IAX-200-001) in the GM-CSF (20 ng/mL) supplemented medium for indicated periods. Cell culture supernatants were harvested at indicated time points and stored at −40°C. RAW 264.7 cells and GMDCs were stimulated by lipopolysaccharide (LPS) (20 ng/mL; Adipogen IAX-100-013), Pam3, or SUP3 (both at 200 nM) for 24 h. For in vivo administration, Pam3 (2 nmol per mouse), SUP3 (2 nmol per mouse), or LPS (1 µg per mouse) were intravenously (i.v.) injected via tail veins. Serum was obtained through tail vein bleeding and centrifuged after coagulation and stored at −40°C. Cytokines (IL-6, eBioscience 88-7064; TNFα, eBioscience 88-7324; IL-12p40, BioLegend 431604), chemokine (MIP1α, R&D Systems DY450-05), and total IgM (eBioscience, 88-50470) were quantified by ELISA kits following the instructions of manufacturers.
# Figure 5 SUP3 enhanced antigen presentation ability of CD11b^+ conventional dendritic cells (cDCs) and production of antibodies against thymus-dependent (TD) antigens. […] Three days after immunization, division of OT-II CD4^+ T cells from inguinal lymph nodes were analyzed by flow cytometry (B). Absolute numbers of proliferated OT-II CD4^+ T cells were calculated in (C). […] (D) The division of OT-II cells was measured by reduced level of CFSE-labeling. […]
row,Molecule,"IL-6, TNFα, and MIP1α production by CD11b+ cDCs"
1,"CCCCCCCCCCCCCCCC(=O)N[C@@H](CSC[C@@H](COC(=O)NCCCCCCCCCCCCCC)OC(=O)NCCCCCCCCCCCCCC)C(=O)NCC(=O)N[C@@H](CCCCN)C(=O)N[C@@H](CCCCN)C(=O)N[C@@H](CCCCN)C(=O)O [SUP3, (2S,5S,8S,14R,18R)-2,5,8-tris(4-aminobutyl)-4,7,10,13,21-pentaoxo-14-palmitamido-18-((tetradecylcarbamoyl)oxy)-20-oxa-16-thia-3,6,9,12,22-pentaazahexatriacontan-1-oic acid] (Palmitoyl-C(X1)GKKK-OH)",lower level
2,Pam3CSK4 [reference compound],lower level
